From patent publication US6566368B2, “Apomorphine-containing dosage form for ameliorating male erectile dysfunction” (Pentech Pharmaceuticals, Inc., priority 1994, dated 2003)
Values joined by “and” are separate entries in the source; they are usually repeats but may differ in a detail not shown here. Equal entries are not always repeated. Where two headings read alike, the source gives them in different places.

Assays:
[1] = tested on: men with psychogenic male erectile dysfunction (MED); assay: Pilot Study #6, third phase: home use, reported success of intercourse (Sexual Function questionnaire); assay type: in vivo, human; conditions: 4 or 6 mg APO sublingual tablets
[2] = tested on: men with psychogenic male erectile dysfunction (MED); assay: as above; assay type: in vivo, human; conditions: for Reported Success by Tablet Strength: home use; for Reported Success, Overall: all doses, 20/29
From the text: The third phase, a home-use phase, lasted 5 weeks. During this phase, subjects attempted coitus at least once each week after taking a single APO tablet. After each attempt the subject and their partner completed a Sexual Function questionnaire (Table XVII).
During the third phase, subjects had recorded at baseline, their satisfaction, erection, number of attempts, and successful intercourse on a VAS scale. Evaluable subjects first recorded a success rate, then completed VAS for erection results and satisfaction with intercourse following take-home treatment. Success rate was calculated for mg as well as μg/kg body weight doses (males). Several evaluations of the data were made including the male and female responses to treatments. The overall average success rate is 69% with APO treatment which is much higher than the average baseline rate 28% (Tables XXI, XXII).

[3] = tested on: patients with psychogenic impotence
[4] = clinical; conditions: male, human, in vivo; for clearance: Cl
[5] = tested on: men with psychogenic male erectile dysfunction (MED); assay: Pilot Study #6: safety and tolerance of escalating APO doses (adverse events, serum chemistry, vital signs)
Experimental: A clinical study of patient tolerance of escalating doses in sublingual tablet administration of APO for the treatment of psychogenic male erectile dysfunction was performed.
In the second phase, subjects returned to the clinic for four visits, each visit one week apart. Subjects received one sublingual administration of either placebo, or 4, 6 and 8 mg APO at each visit. Doses of APO were administered in ascending order with the placebo being randomly assigned for use at one of the four visits. The procedures performed before and after drug administration were the same as those in the first phase.
Fifty males with psychogenic MED were enrolled in this three phase trial. The first aim of this study was to determine the safety and tolerance of APO in the treatment of MED.

[6] = tested on: patients with psychogenic impotence; remark: listed apart in the source
[7] = tested on: patients with psychogenic impotence; conditions: for Mean (SE) erectile function / Percent (SE) successful erectile function (score at least 16): N 12
[8] = in vivo; for Vd (SS) / Vd (beta): male, human
[9] = tested on: patients with psychogenic impotence; assay: Pilot Study #3: aqueous intranasal spray (1.25 mg per puff), […] erectile response, adverse effects; assay type: in vivo, human
From the text: The first patient was an anxious person who had been experiencing erectile dysfunction for two years.

[10] = cited from earlier work
[11] = liquid apomorphine sublingual, 10 mg and 20 mg, ten evaluable patients
[12] = liquid sublingual 10 mg and 20 mg
[13] = sublingual tablets 2.5 mg and 5 mg, seven evaluable patients
[14] = sublingual tablets 3, 4, 5 mg (Table I), twelve patients
[15] = intranasal 2.5 mg, Patient No. 2
[16] = Durif, F. et al., s.l., 7 × 3 mg tablets, 0.3 mg/kg, 7 subjects
[17] = Durif, F. et al., s.l., 14 × 3 mg tablets, 0.6 mg/kg, 7 subjects
[18] = Gancher, S. T., et al., s.c., 0.02 mg/kg, 5 subjects
[19] = Gancher, S. T., et al., s.l., 3 × 6 mg tablets, 0.25 mg/kg, 5 subjects
[20] = Montastruc, J. L., et al., s.c., 0.04 mg/kg, 9 subjects
[21] = Montastruc, J. L., et al., s.l., 10 × 3 mg tablets, 0.42 mg/kg, 9 subjects

Compound: CN1CCc2cccc3c2[C@H]1Cc1ccc(O)c(O)c1-3 [apomorphine]
- men with MED in whom erections were caused [1]: 72%
- Reported Success by Tablet Strength ([2]; Female group, 4 mg): 5/7 (71.4%)
- Reported Success by Tablet Strength ([2]; Female group, 8 mg): 4/7 (57.1%)
- Reported Success by Apomorphine Dosage ([2]; Female group, 35-50 μg/kg): 3/5 (60.0%)
- Reported Success by Apomorphine Dosage ([2]; Female group, 50-74 μg/kg): 9/11 (81.8%)
- Reported Success by Apomorphine Dosage ([2]; Female group, 50-74 μg/kg, listed as APO): 82%
- Reported Success by Apomorphine Dosage ([2]; Female group, >74 μg/kg): 8/13 (61.5%)
- Reported Success, Overall ([2]; Female group): (69.0%)
- Reported Success by Tablet Strength ([2]; Male group, 4 mg): 5/7 (71.4%)
- Reported Success by Tablet Strength ([2]; Male group, 8 mg): 4/7 (57.1%)
- Reported Success by Apomorphine Dosage ([2]; Male group, 35-50 μg/kg): 4/5 (80.0%)
- Reported Success by Apomorphine Dosage ([2]; Male group, 50-74 μg/kg): 8/11 (72.7%)
- Reported Success by Apomorphine Dosage ([2]; Male group, 50-74 μg/kg, listed as APO): 80%
- Reported Success by Apomorphine Dosage ([2]; Male group, >74 μg/kg): 8/13 (61.5%)
- Reported Success, Overall ([2]; Male group): (69.0%)
- overall average success rate ([2]; take-home APO treatment, average baseline rate 28%): 69%
- failures with apomorphine [3, 11]: 30%
- successes (score of no less than 16 on both neutral and erotic video segments) [3, 11]: 70%
- adverse effects [3, 12]: Adverse effects were reported at both dose levels
- erectile response [3, 12]: produce erectile responses
- longest duration of side effects [3, 12]: 30 to 40 min
- onset of adverse effects [3, 12]: ten to fifteen
- yawns per session ([3]; liquid sublingual 10 mg and 20 mg, each patient): two to five
- erectile response ([3]; liquid sublingual 10 mg and 20 mg, listed as Apomorphine): effective in inducing erectile episodes without increasing libido
- patients successful with apomorphine among those who had failed a trial of yohimbine HCl ([3]; of group of eight, liquid sublingual 10 mg and 20 mg): 6
- patients developing nausea, diaphoresis, dizziness, blurred vision, decrease in blood pressure and heart rate ([3]; of ten evaluable, liquid sublingual 10 mg and 20 mg): eight
- Vd ([4]; 0.06 mg/kg): 2.33 L/kg
- clearance ([4]; iv, 0.01 mg/kg): 4.37 L/h/kg
- Vd ([4]; iv, 0.01 mg/kg): 3.35 L/kg
- AUC(0-inf) ([4]; iv, 1 mg, AUC (0-inf)): 3.45 ng·h/mL
- clearance ([4]; iv, 1 mg): 5100 mL/min
- Cmax ([4]; iv, Cmax): 0.00836 µg/mL
- cardiovascular and other adverse events ([5]; 4, 6, 8 mg sublingual, with bradycardia, dizziness, syncope, pallor): Hypotension was reported as an adverse event in some subjects
- incidence of vomiting ([5]; all administered doses): less than 3%
- nausea cases considered severe ([5]; all administered doses): two
- overall incidence of nausea ([5]; all administered doses (4, 6, 8 mg sublingual)): less than 13 % of the subjects
- changes in serum chemistry values and vital signs ([5]; except one subject with abnormal liver function of unknown origin): no clinically significant changes
- yawns per session ([6]; 2.5 mg dose, patients who failed testing): one or two
- yawning responses per session ([6]; 5 mg dose): three to five
- adverse effects ([6]; sublingual tablet 2.5 mg, the two successful patients): did not produce adverse effects
- adverse effects (nausea, diaphoresis, dizziness, blurred vision, facial flushing, drop in heart rate and blood pressure) ([6]; sublingual tablet 5 mg): produced adverse effects
- failures during lab testing [6, 13]: 71%
- successes (score of no less than 16) during lab testing [6, 13]: 28% and 29%
- erectile response ([6]; sublingual tablets 2.5 and 5 mg): produced erectile responses in some patients
- time for sublingual tablets to dissolve ([6]; sublingual tablets 2.5 and 5 mg, under the tongue): five
- yawns ([6]; the two successful patients, 2.5 mg and 5 mg doses): three to five
- active treatment compared with placebo, mean erectile function ([7]; 3 mg and 4 mg, regardless of stimulus background): more effective than placebo
- Mean (SE) erectile function ([7]; Erotic stimulus, 3 mg): 18.75 (2.51)
- Percent (SE) successful erectile function (score at least 16) ([7]; Erotic stimulus, 3 mg): 66.67 (13.61) Percent
- Mean (SE) erectile function ([7]; Erotic stimulus, 4 mg): 19.83 (2.67)
- Percent (SE) successful erectile function (score at least 16) ([7]; Erotic stimulus, 4 mg): 66.67 (13.61) Percent
- Mean (SE) erectile function ([7]; Neutral stimulus, 3 mg): 11.83 (2.68)
- Percent (SE) successful erectile function (score at least 16) ([7]; Neutral stimulus, 3 mg): 50.00 (14.43) Percent
- Mean (SE) erectile function ([7]; Neutral stimulus, 4 mg): 13.50 (2.61)
- Percent (SE) successful erectile function (score at least 16) ([7]; Neutral stimulus, 4 mg): 50.00 (14.43) Percent
- number of yawns ([7]; all doses 3, 4, 5 mg): one or two
- domestic use, patient reports ([7]; eight successful patients, one to four months): good erectile activity and no side effects
- patients successfully treated among those who had failed a trial of yohimbine HCl ([7]; of group of seven): four
- failures with apomorphine [7, 14]: 33%
- patients successful with apomorphine [7, 14]: 67%
- plasma concentration compared with previous reports (Table XVI) [8]: produced a lower plasma concentration
- Vd (SS) ([8]; 4 mg): 1.836 mL
- Vd (beta) ([8]; 4 mg): 4.076 mL
- Vd (SS) ([8]; 8 mg): 46.30 mL
- Vd (beta) ([8]; 8 mg): 69.09 mL
- Ke (IV Administration, mean (Table XII)): 0.0237 min⁻¹
- Ke (IV administration 1 mg, mean, n = 7): 0.0237 min⁻¹
- Vd (male, human, in vivo, 0.114 mg/kg): 2.07 L/kg
- Ke (sublingual 4 mg dose, individual subjects #1, #3, #6, #7): 0.0060 min⁻¹
- Ke (sublingual 8 mg Dose, mean (Table XII)): 0.0056 min⁻¹
- Ke (sublingual administration 8 mg dose, mean, n = 4): 0.0056 min⁻¹
- adverse effects [9, 15]: major hemodynamic adverse effects
- blood pressure (hypotension) [9, 15]: 70/50
- total yawns ([9]; intranasal 2.5 mg, Patient No. 2, ten minutes post-dosing): five
- erectile response ([9]; intranasal administration): effective in eliciting an erection
- score on both erotic and neutral video segments ([9]; intranasal spray 2.5 mg, 3.75 mg, first patient, categorized as a failure): less than sixteen
- time to adverse effects (nausea and vomiting, dizziness, blurred vision, diaphoresis) ([9]; intranasal spray, first patient, after inadvertently increased dose): five
- Cmax ([10]; Durif, F. et al., Clin. Neuropharm. 16:157-166, s.l., 7 × 3 mg tablets, 0.3 mg/kg, 7 subjects): 0.0075 µg/mL
- AUC [10, 16]: 929 ng·min/mL
- Cl [10, 16]: 2.1 L/h/kg
- MRT [10, 16]: 128 min
- Tmax [10, 16]: 31.5 min
- Vd [10, 16]: 3.4 L/kg
- AUC [10, 17]: 2,277 min*ng/ml
- Cl [10, 17]: 1.8 L/h/kg
- Cmax [10, 17]: 0.0227 µg/mL
- MRT [10, 17]: 125 min
- Tmax [10, 17]: 38.3 min
- Vd [10, 17]: 2.8 L/kg
- Cmax ([10]; Gancher, S. T., et al., Movement Disorders 6:212-216 (1991), s.l., 3 × 6 mg tablets, 0.25 mg/kg, 5 subjects): 0.0143 µg/mL
- Vd ([10]; Gancher, S. T., et al., i.v., […], 5 subjects, *Calculated): 0.043* l/kg
- Tmax ([10]; Gancher, S. T., et al., i.v., […], 5 subjects): 6.7 min
- AUC [10, 18]: 592.7 ng·min/mL
- Cmax [10, 18]: 0.01936 µg/mL
- Tmax [10, 18]: 6.5 min
- AUC [10, 19]: 1,057 min*ng/ml
- Tmax [10, 19]: 45 min
- Cmax ([10]; Montastruc, J. L., et al., Clin. Neuropharmacol. 14:432-437 (1991), s.l., 10 × 3 mg tablets, 0.42 mg/kg, 9 subjects): 0.028 µg/mL
- AUC [10, 20]: 837 ng·min/mL
- Cmax [10, 20]: 0.026 µg/mL
- Tmax [10, 20]: 18 min
- AUC [10, 21]: 1,882 min*ng/ml
- Tmax [10, 21]: 41 min
